One data set concerns cytochrome P450 enzymes. The data set can be described thus: In vitro metabolism studies. Type of data set: in vitro ADME.
In another data set the test system is MEXF 276L melanoma cells. The note with it: cited from earlier work.
In data set [1] the test system is lung cancer cells with wild-type Rb. Particulars: cited from earlier work.
Data set [2] deals with patients with advanced solid tumors. Particulars: cited from earlier work.

Molecules are shown by their SMILES.

Regarding `C=CCNC1=C2C[C@@H](C)C[C@H](OC)[C@H](O)[C@@H](C)/C=C(\C)[C@H](OC(N)=O)[C@@H](OC)/C=C\C=C(/C)C(=O)NC(=CC1=O)C2=O` [17-AAG, 17-Allylamino-17-demethoxygeldanamycin], the “enzymes involved in metabolism” value in the data set with cytochrome P450 enzymes is “implicate the involvement of cytochrome P450 enzymes”. Besides, in the data set with MEXF 276L melanoma cells, the “effect of exposure on client proteins” value was “depletion of Hsp90 and down-regulation of Raf-1 and erbB2”. The “effect of exposure on client proteins” value in data set [1] was “degradation of cdk4, cdk6, and cyclin E”. Besides, in data set [2] (dose of 395 mg/m^2), the toxicities observed entry is “nausea and vomiting secondary to pancreatitis and grade 3 fatigue”. For the same molecule, in data set [2] (population PK analysis), the “17-AAG metabolized to 17-AG (metabolic clearance)” value was 46.4%; the “Vd (volume of distribution), central compartment” value is reported as 24.2 L; the “Vd (volume of distribution), peripheral compartment” value is 89.6 L. Besides, in data set [2] (to date), the objective tumor responses result was “No objective tumor responses”.

These data come from US20060252740A1 (priority 2005, published 2006).
